Assay results reported in the supplement of paper PMC10307832.

Assays:
Assay in all cases: relative viability (nuclei count vs DMSO), 5 days (fraction); higher = more cells survive
XMD13-2 + AZD7762 = compound: C1CC1C(=O)NC2=NNC3=C2C=CC(=C3)C4=CC(=CC=C4)C(=O)NC5CC5 [XMD13-2] + NC(=O)Nc1cc(-c2cccc(F)c2)sc1C(=O)N[C@H]1CCCNC1 [AZD7762] (partner 0.2 µM)
In short: (§1)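 Lung cancer cell lines, seeded in 1536-well plates, were treated the following day by pin tool with a single drug or with five library-drug doses (not always all listed) in √10 steps on top of a fixed anchor-drug dose. Cells were fixed and nuclei stained in one step after 5 days, and nuclei were counted. Relative viability is the nuclei count for treated wells divided by that for vehicle wells, reported as medians of duplicate plates.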

ALW-II-49-7 + Foretinib = compound: Cc1ccc(C(=O)Nc2cccc(C(F)(F)F)c2)cc1Nc1cncc(C(N)=O)c1 [ALW-II-49-7] + COc1cc2c(Oc3ccc(NC(=O)C4(C(=O)Nc5ccc(F)cc5)CC4)cc3F)ccnc2cc1OCCCN1CCOCC1 [Foretinib] (partner 0.25 µM)
In short: as §1

ALW-II-49-7 + Linsitinib = compound: Cc1ccc(C(=O)Nc2cccc(C(F)(F)F)c2)cc1Nc1cncc(C(N)=O)c1 [ALW-II-49-7] + C[C@]1(O)C[C@@H](c2nc(-c3ccc4ccc(-c5ccccc5)nc4c3)c3c(N)nccn32)C1 [Linsitinib] (partner 1 µM)
In short: as §1

Dasatinib + Pictilisib = compound: Cc1nc(Nc2ncc(C(=O)Nc3c(C)cccc3Cl)s2)cc(N2CCN(CCO)CC2)n1 [Dasatinib] + CS(=O)(=O)N1CCN(Cc2cc3nc(-c4cccc5[nH]ncc45)nc(N4CCOCC4)c3s2)CC1 [Pictilisib] (partner 1 µM)
In short: as §1

Cell Line	relative viability (XMD13-2 + AZD7762; first compound 0.05 µM)	relative viability (XMD13-2 + AZD7762; first compound 0.1581 µM)	relative viability (XMD13-2 + AZD7762; first compound 0.5 µM)	relative viability (XMD13-2 + AZD7762; first compound 1.581 µM)	relative viability (XMD13-2 + AZD7762; first compound 5 µM)	relative viability (ALW-II-49-7 + Foretinib; first compound 0.253 µM)	relative viability (ALW-II-49-7 + Foretinib; first compound 0.8 µM)	relative viability (ALW-II-49-7 + Foretinib; first compound 2.53 µM)	relative viability (ALW-II-49-7 + Foretinib; first compound 8 µM)	relative viability (ALW-II-49-7 + Linsitinib; first compound 0.08 µM)	relative viability (ALW-II-49-7 + Linsitinib; first compound 0.253 µM)	relative viability (ALW-II-49-7 + Linsitinib; first compound 0.8 µM)	relative viability (ALW-II-49-7 + Linsitinib; first compound 2.53 µM)	relative viability (ALW-II-49-7 + Linsitinib; first compound 8 µM)	relative viability (Dasatinib + Pictilisib; first compound 0.005 µM)	relative viability (Dasatinib + Pictilisib; first compound 0.01581 µM)	relative viability (Dasatinib + Pictilisib; first compound 0.05 µM)	relative viability (Dasatinib + Pictilisib; first compound 0.1581 µM)	relative viability (Dasatinib + Pictilisib; first compound 0.5 µM)	relative viability (ALW-II-49-7 + Foretinib; first compound 0.08 µM)
201T	0.634	0.707	0.584	0.616	0.61	1.24	1.01	0.447	1.13	1.03	1.06	1.02	0.983	1	0.664	0.517	0.627	0.521	0.383	
A549						0.92	0.78	0.961	0.824	0.654	0.511	0.551	0.263	0.481	0.388	0.257	0.3	0.134	0.0986	0.918
A-427	0.899	0.74	0.811		0.588	0.95	1.12	1.14	1.2	1.17	1.15	1.15	1.12	1.18	0.705	0.674	0.663	0.511	0.461	1.16
ABC-1		0.897	0.531		0.745	1.11	1.14	0.863	1.42	0.87	0.85	0.676	0.885	0.765	0.937	0.625	0.659	0.644	0.506	0.959
BEN	0.799	0.777	0.638	0.594	0.729	0.756	0.768	0.752	0.692	0.69	0.865	0.99		0.936	0.446	0.37	0.323	0.297	0.294	0.829
CAL-12T	0.625	0.708	0.583	0.563	0.933	1.14	1.19	1.07	0.843	1.01	0.965	0.736	0.796	0.701	0.303	0.586	0.337	0.223	0.128	1.11
COR-L23						1.09	0.903	0.913	0.945	0.947	0.829	0.769	0.953	0.957	0.714	0.608	0.744	0.34	0.207	1.1
COR-L 105						0.949	0.992	0.99	1.23	0.884	0.848	0.824	0.745	0.752	0.359	0.383	0.316	0.308	0.245	1.02
Calu-6						0.832	0.912	0.832	0.805	0.987	0.847	0.903	0.881	0.852	0.732	0.65	0.742	0.604	0.527	0.914
ChaGo-K-1	0.956	0.97	0.892	0.924	0.881	0.968	0.931	0.905	0.91						0.435	0.761	0.774	0.649	0.626	0.971
EBC-1						0.11	0.098	0.0988	0.114	0.83	0.784	0.358	0.856	0.391	0.329	0.231	0.216	0.181	0.204	0.0976
EKVX	0.888	0.689	0.54		0.719	0.753	0.898	1.05	0.746	0.972	0.91	1.05	0.699	0.815	0.449	0.231	0.338	0.181	0.101	0.781
EMC-BAC-2	1.34	1.16	1.06	0.984	0.864	1.04	0.989	0.885	0.878	0.811	0.814	0.894	0.836	0.747	0.455	0.344	0.327	0.243	0.185	0.968
EPLC-272H	0.294	0.237	0.0561	0.156	0.231		0.712	0.643	0.917	0.954	0.922	1.15	1.26	1.18	0.312	0.354	0.276	0.221	0.147	0.665
H3255	0.949	1.09	0.829	0.847	0.855	0.827	0.939	1.02	0.703	0.832	0.892	0.94	0.884	0.9	0.474	0.446	0.342	0.234	0.152	1.01
HARA	0.301	0.557	0.263	0.376	0.37	0.836	1.03	0.887	1.04	0.914	0.77	0.929	0.968	1.02	0.204	0.259	0.346	0.157	0.0728	0.646
HCC-15	1.35	1.15	1.17	1.22	1.24	1.1	1.03	0.96	1	0.963	0.931	0.973	0.971	0.947	0.69	0.567	0.681	0.486	0.502	1.08
HCC-44	0.944	0.98	0.969	1.05	1.02					0.6	0.658	0.686	0.619	0.839	0.517	0.392	0.39	0.291	0.148	
